Data published in US20230416168A1 (EUROCHEM ANTWERPEN, priority 2020, published 2023).
pIC50: −log10 of the molar value. Values belong to the molecule of their own block, whether it stands above or below them.

Experiments:
[1] = system: Sint-Laureins soil; test: Greenhouse gas emissions from soil fertilized with ammonium, Sint-Laureins soil
Method: (§1) Two agricultural soils coming from fields in Moorslede and Sint-Laureins were used. Screw top vials were filled with 10 g soil. Vials were sealed with Parafilm and preincubated at 21° C. in the dark for 5 days. After pre-incubation, vials were ventilated using a fan. The 100 μL of a 1 mM compound solution (10% DMSO) was added, immediately followed by the addition of 100 μL 200 mM NH4Cl. Vials were closed gastight and 5 mL synthetic air was added to the headspace using a plastic syringe, followed by the transfer of 5 mL headspace to an evacuated 3 mL exetainer. Vials were incubated at 21° C. in the dark and background NO concentration was noted. At each sampling timepoint, 5 mL synthetic air was added again to the headspace using a plastic syringe, again followed by the transfer of 5 mL headspace to an evacuated 3 mL exetainer. Vials were ventilated and closed again, and new gas samples were transferred to texetainers like before. N2O, CO2, CH4 in the exetainers were measured via gas chromatography. NO concentration was measured directly.
(§2) To further confirm the inhibitory effect of the new class of nitrification inhibitors on nitrogen losses, gas emissions from soil fertilized with ammonium and treated with 1,3-thiazolidine-2-thione were captured. NO, N2O, CO2 and CH4 was measured.

[2] = system: Moorslede soil; test: In soil nitrification inhibition assay, Moorslede soil; settings: soil, 120 h, 5 days
Method: Top layer (0 to 10 cm) soil samples were collected from different fields in Belgium (Merelbeke and Moorslede). Vegetation on the field trial was removed and samples were taken from different plots. All soil samples were mixed and sieved (mesh size 2.8 mm) to filter large debris and homogenize soil. The soil was stored at 5° C. in plastic containers covered with Saran foil to prevent changes in microbial community composition and to maintain the original soil water content.
Soil water content was determined by drying 20 g soil for 48 h in a 60° C. oven and measuring weight before and after drying. Based on the soil water content (±20%), compound solutions were prepared so that addition of 200 μl compound and 200 μl NH4Cl solution would result in a final compound concentration of 50 μM and a final NH4^+ concentration of 10 mM. Per treatment, 5 small pots were filled with 20 g soil. Next, the soil was treated first with the respective compound solution and then with the NH4Cl solution. Per tray, positive (50 μM DMP) and negative controls (DMSO) were included. Pots were incubated at 21° C. (6 a.m. to 10 p.m. light) for 7 days. Demineralized water was added to the soil every 2 to 3 days to a soil weight of 20 g. In the end, each sample of 20 g soil was dissolved in 100 ml 1M KCl and shaken for 1 hour, followed by filtration through Whatmann® paper. The filtrate was used to measure pH, NH4^+ and NO3− concentrations.
A set of examples was tested in the same conditions (Moorslede soil, 3 days of incubation) at a concentration of 50 μM.
Another set of examples was tested in different concentrations in Moorslede soil as well, and were sampled after 5 days.
The effect of 3H-1,3-thiazole-2-thione was tested in soil in accordance with the test described above in section 3.3.

[3] = system: Moorslede soil; test: Greenhouse gas emissions from soil fertilized with ammonium, Moorslede soil
Method: as §1, §2

[4] = system: Nitrosomonas europaea; test: Nitrification inhibition assay with Nitrosomonas europaea (nitrite level after 24 h); format: cell-based; settings: Nitrosomonas europaea
Method: (§3) The compounds of formula (I) and (II) and (III)/(IV) were tested for their nitrification inhibition effect in two screens, using assays with the nitrifying bacteria N. europaea and N. multiformis. In practice, ammonium and candidate nitrification inhibitors (at 100 μM) were added to a dense bacterial culture in multiwell culture plates and after 24 h of incubation, the nitrite level was measured. To normalize for differences between batches of cultures and multiwell culture plates, for each well a relative nitrification was calculated that was normalized towards both the negative and positive controls (see “Material and Methods” below for full details).
(§4) Nitrite (NO2−) was measured using the Griess reagent (Product number: G4410, Griess reagent (modified), Sigma-Aldrich). Equal volumes of the sample or a diluted sample and the Griess reagent were mixed a transparent flat bottom multi-well plate and incubated in the dark at room temperature for 10 minutes. Absorbance values at 540 nm were measured spectrophotometrically (EnVision, Perkin Elmer®) and used to calculate the [NO2−] by use of a standard curve.
To prepare a high-throughput nitrification inhibition assay using N. europaea, late-log phase cultures were subcultivated two days before the assay. Just before the assay, the cultures were 5 times overconcentrated with fresh growth medium after centrifugation (4000 rpm, 15 min, 5° C.) in 50 mL centrifuge tubes (Cat. No. 430829, CentriStar™ Conical Centrifuge Tubes, Corning®). Per batch, all the cultures were pooled in one sterile Schott bottle and subsequently dispensed into 384-well plates (Cat. No. 781086, CELL-STAR® plate, Greiner Bio-One; 50 μl/well) by use of a dispenser (Multidrop™ Combi Reagent Dispenser, Thermo Scientific™) that was first flushed with growth medium. Specifically for the high-throughput screen for new nitrification inhibitors, 0.5 μl of 99.99% DMSO (negative control—final concentration 1%) was added to the outer two columns on the left side of the plate and 0.5 μl of 10 mM DMP (3,4-dimethylpyrazole, positive control—final concentration 100 μM) was added to the outer two columns on the right side manually. Finally, 0.5 μl of candidate nitrification inhibitors (5 mM stock solutions in 99.99% DMSO—final concentration 50 μM) were added to the central wells using a pin tool on a Tecan robot (Freedom EVO®, Tecan). In between additions, the pins were washed in sequence with 99.5% DMSO, MilliQ water and 100% ethanol and air-dried. All plates were separately wrapped in Parafilm. Stacks of 4 plates were put on top of a 96-well plate filled with 100 μl MilliQ per well, covered with aluminum foil and shaken at 150 rpm at 28° C. 24 h later, NO2− production was assessed. For this, the samples were first 200 times diluted by pipetting 1.5 μl of samples into 300 μl of fresh growth medium in intermediate plates (Cat. No. 353077, Falcon® 96-well Clear Round Bottom Microplate, Corning®), to then mix 15 μl of the diluted samples with 15 μl Griess reagent in the wells of a transparent, flat bottom 384-well plate (Cat. No. X^7001, Low Profile Microplate, Molecular Devices) that was measured spectrophotometrically at 540 nm (EnVision, Perkin Elmer®).
(§5) To assess the efficacy of the compounds (in terms of nitrification inhibition) and to enable comparison between plates and batches of cultures, we calculated the relative nitrification. More in detail, all nitrite results were normalized towards both a negative control, containing no compound, and a positive control, containing the benchmark (100 μM DMP), using Equation 1. This normalization was done per multi-well plate and each plate contained 32 positive and 32 negative controls.
IC50 values, that is the concentration that inhibits 50% of the nitrification, were calculated after fitting a logistic curve to 8-point dose response data, using doses between 2 and 100 μM with 1.75 fold steps. […]

[5] = system: Nitrosospira multiformis; test: Nitrification inhibition assay with Nitrosospira multiformis (nitrite level after 24 h); format: cell-based; settings: Nitrosospira multiformis
Method: as §3, §4
Cultures were first 5 times overconcentrated in fresh 181-medium by centrifugation (4000 rpm, 15 min, 5° C.) in 50 mL centrifuge tubes (Cat. No. 430829, CentriStar™ Conical Centrifuge Tubes, Corning®). Per batch, all the cultures were pooled in one sterile Schott bottle and subsequently dispensed in 384-well plates (Cat. No. 781086, CELLSTAR® plate, Greiner BioOne; 50 μl/well) by use of a dispenser (Multidrop™ Combi Reagent Dispenser, Thermo Scientific™) that was first flushed with 181-medium. 0.5 μl of 99.99% DMSO (negative control—final concentration […] was added to the outer two columns on the left side of the plate and 0.5 μl of 10 mM DMP (3,4-dimethylpyrazole, positive control—final concentration 100 μM) was added to the outer two columns on the right side manually. Finally, 0.5 μl of candidate nitrification inhibitors (5 mM stock solutions in 99.99% DMSO—final concentration 50 μM) were added to the central wells using a pin tool on a Tecan robot (Freedom EVO®, Tecan). In between additions, the pins were washed in sequence with 99.5% DMSO, MilliQ water and 100% ethanol and air-dried. All plates were separately wrapped in Parafilm. Stacks of 4 plates were put on top of a 96-well plate filled with 100 μl MilliQ per well, covered with aluminum foil and shaken (±150 rpm) at 30° C. 24 h later, NO2− production was assessed. For this, the samples were first 100 times diluted by pipetting 3 μl of samples into 300 μl fresh growth medium in intermediate plates (Cat. No. 353077, Falcon® 96-well Clear Round Bottom Microplate, Corning®) to then mix 15 μl of the diluted samples with 15 μl Griess reagent in the wells of a transparent, flat bottom 384-well plate (Cat. No. X^7001, Low Profile Microplate, Molecular Devices) that was measured spectrophotometrically at 540 nm (EnVision, Perkin Elmer®).
as §5
IC50 values, that is the concentration that inhibits 50% of the nitrification, were calculated after fitting a logistic curve to 8-point dose response data, using doses between 2 and 100 μM with 1.75 fold steps. If a concentration of 2 μM already inhibited nitrification, the IC50 value could not be calculated. In that case, IC50 values represent the dose that gives inhibition closest to 50%.
The compounds of formula (I) and (II) were tested for their nitrification inhibition effect in two screens, using assays with the nitrifying bacteria N. europaea and N. multiformis. […]

[6] = 8-point dose response, 2 to 100 μM, read-out: IC50

SMILES: S=C1NCCS1 [Example 3, 1,3-thiazolidine-2-thione]
- Cumulative emission at indicated timepoint [ppm] ([1]; CH4, 4 h): 0.00 ppm
- Cumulative emission at indicated timepoint [ppm] ([1]; CH4, 24 h): 0.10 ppm
- Cumulative emission at indicated timepoint [ppm] ([1]; CH4, 48 h): 0.16 ppm
- Cumulative emission at indicated timepoint [ppm] ([1]; CH4, 72 h): 0.25 ppm
- Cumulative emission at indicated timepoint [ppm] ([1]; CH4, 99 h): 0.25 ppm
- Cumulative emission at indicated timepoint [ppm] ([1]; CO2, 4 h): 372 ppm
- Cumulative emission at indicated timepoint [ppm] ([1]; CO2, 24 h): 1179 ppm
- Cumulative emission at indicated timepoint [ppm] ([1]; CO2, 48 h): 2094 ppm
- Cumulative emission at indicated timepoint [ppm] ([1]; CO2, 72 h): 3101 ppm
- Cumulative emission at indicated timepoint [ppm] ([1]; CO2, 99 h): 4168 ppm
- Cumulative emission at indicated timepoint [ppm] ([1]; N2O, 4 h): 0 ppm
- Cumulative emission at indicated timepoint [ppm] ([1]; N2O, 24 h): 0 ppm
- Cumulative emission at indicated timepoint [ppm] ([1]; N2O, 48 h): 1 ppm
- Cumulative emission at indicated timepoint [ppm] ([1]; N2O, 72 h): 1 ppm
- Cumulative emission at indicated timepoint [ppm] ([1]; N2O, 99 h): 2 ppm
- Cumulative emission at indicated timepoint [ppm] ([1]; NO, 4 h): 17 ppm
- Cumulative emission at indicated timepoint [ppm] ([1]; NO, 24 h): 52 ppm
- Cumulative emission at indicated timepoint [ppm] ([1]; NO, 48 h): 86 ppm
- Cumulative emission at indicated timepoint [ppm] ([1]; NO, 72 h): 140 ppm
- Cumulative emission at indicated timepoint [ppm] ([1]; NO, 99 h): 161 ppm
- effect on CH4 emission, in words ([1]; cumulative, incubation of 99 h): No significant effects
- effect on CO2 emission, in words ([1]; cumulative, incubation of 99 h): strongly reduced
- effect on N2O emission, in words ([1]; cumulative, incubation of 99 h): strongly reduced
- effect on NO emission, in words ([1]; cumulative, incubation of 99 h): strongly reduced
- inhibition at 20 µM ([2]; 20 μM, read-out: Average % nitrification inhibition in soil (5 days of incubation, Moorslede soil) at 20 μM): 7%
- Cumulative emission at indicated timepoint [ppm] ([3]; CH4, 4 h): 0.20 ppm
- Cumulative emission at indicated timepoint [ppm] ([3]; CH4, 24 h): 0.38 ppm
- Cumulative emission at indicated timepoint [ppm] ([3]; CH4, 48 h): 0.38 ppm
- Cumulative emission at indicated timepoint [ppm] ([3]; CH4, 72 h): 0.51 ppm
- Cumulative emission at indicated timepoint [ppm] ([3]; CH4, 99 h): 0.51 ppm
- Cumulative emission at indicated timepoint [ppm] ([3]; CO2, 4 h): 619 ppm
- Cumulative emission at indicated timepoint [ppm] ([3]; CO2, 24 h): 2385 ppm
- Cumulative emission at indicated timepoint [ppm] ([3]; CO2, 48 h): 4261 ppm
- Cumulative emission at indicated timepoint [ppm] ([3]; CO2, 72 h): 6195 ppm
- Cumulative emission at indicated timepoint [ppm] ([3]; CO2, 99 h): 8131 ppm
- Cumulative emission at indicated timepoint [ppm] ([3]; N2O, 4 h): 0 ppm
- Cumulative emission at indicated timepoint [ppm] ([3]; N2O, 24 h): 0 ppm
- Cumulative emission at indicated timepoint [ppm] ([3]; N2O, 48 h): 0 ppm
- Cumulative emission at indicated timepoint [ppm] ([3]; N2O, 72 h): 0 ppm
- Cumulative emission at indicated timepoint [ppm] ([3]; N2O, 99 h): 0 ppm
- Cumulative emission at indicated timepoint [ppm] ([3]; NO, 4 h): 25 ppm
- Cumulative emission at indicated timepoint [ppm] ([3]; NO, 24 h): 28 ppm
- Cumulative emission at indicated timepoint [ppm] ([3]; NO, 48 h): 43 ppm
- Cumulative emission at indicated timepoint [ppm] ([3]; NO, 72 h): 65 ppm
- Cumulative emission at indicated timepoint [ppm] ([3]; NO, 99 h): 65 ppm
- effect on CH4 emission, in words ([3]; cumulative, incubation of 99 h): No significant effects
- effect on CO2 emission, in words ([3]; cumulative, incubation of 99 h): strongly reduced
- effect on N2O emission, in words ([3]; cumulative, incubation of 99 h): strongly reduced
- effect on NO emission, in words ([3]; cumulative, incubation of 99 h): strongly reduced

- pIC50 [4, 6]: 4.59
- pIC50 [5, 6]: < 4.00
SMILES: CSc1ncco1 [Example 39]
- activity at 100 µM ([4]; tested concentration 100 μM, 24 h, normalized to DMSO (100%) and 100 μM DMP (0%), read-out: Nitrification (%) at tested concentration (0 = maximum activity)): 22%
- inhibition at 50 µM ([2]; 50 μM, read-out: % Nitrification inhibition in soil (5 days of incubation, Moorslede soil) at indicated concentration): 62%
- activity at 100 µM ([5]; tested concentration 100 μM, 24 h, normalized to DMSO (100%) and 100 μM DMP (0%), read-out: Nitrification at tested concentration (0 = maximum activity)): 52%
